# Reference: ChEMBL document CHEMBL1201862, “PubChem BioAssay data set” (2004)
# Counter-ions that a name gives are not always drawn. Active and inactive are the calls of the source. For most assays here, no stated cut-off is given here; in the data, actives have a measured EC50 and inactives only a lower limit. Non-standard residues stand in square brackets, D forms with d. Residues, ends and D or L forms follow the SMILES beside them. ξ: configuration not given here. Pen = CC(C)(S)[C@H](N)C(=O)O; ξL = CC(C)CC(N)C(=O)O
# Assays:
# [1] = target: Luciferin 4-monooxygenase (Photinus pyralis, UniProt P08659); assay: inhibition of purified Photinus pyralis luciferase – biochemical, luminescence, dose response (AID 1891)
# Chain of Luciferin 4-monooxygenase (P08659 whole entry): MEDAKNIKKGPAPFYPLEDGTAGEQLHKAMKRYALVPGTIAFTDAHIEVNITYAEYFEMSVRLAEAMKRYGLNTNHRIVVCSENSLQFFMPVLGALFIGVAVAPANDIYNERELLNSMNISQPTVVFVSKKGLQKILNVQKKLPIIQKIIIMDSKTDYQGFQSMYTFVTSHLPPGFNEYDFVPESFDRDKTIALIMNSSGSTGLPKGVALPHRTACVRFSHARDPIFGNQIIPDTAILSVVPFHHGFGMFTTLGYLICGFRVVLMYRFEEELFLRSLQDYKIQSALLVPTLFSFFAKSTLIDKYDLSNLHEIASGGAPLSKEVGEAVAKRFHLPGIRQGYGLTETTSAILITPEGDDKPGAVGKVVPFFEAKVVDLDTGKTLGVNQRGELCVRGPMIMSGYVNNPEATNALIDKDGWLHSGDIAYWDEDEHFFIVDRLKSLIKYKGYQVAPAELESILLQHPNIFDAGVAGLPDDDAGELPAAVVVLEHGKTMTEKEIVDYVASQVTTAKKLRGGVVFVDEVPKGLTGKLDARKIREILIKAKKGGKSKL
# [2] = Luminescence Cell-Based Dose Confirmation HTS to Identify Inhibitors of Platelet Dense Granule Release. [Related pubchem assays: 1663 (Primary HTS), 1678 (Summary of Project)]; assay type: functional
# P388/ADR = assay: cells; assay type: functional; settings: Mus musculus
# SN12K1 = assay: cells; assay type: functional; settings: Homo sapiens
# P388 = assay: cells; assay type: functional; settings: Mus musculus
# [3] = target: T1, Heat shock factor protein 1 (Mus musculus, UniProt P38532); assay: enhancement of HSF1-driven luciferase signal – cell-based, NIH3T3, luminescence, dose retest, confirmation (AID 435004); assay type: functional;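 further: stress induced by proteasome inhibitor MG132 added 30 min after compound; luciferase reporter driven by HSF1 response element in NIH3T3 cells; actives raise luminescence as potentiators of the MG132 stress response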
# T1 sequence (P38532 whole entry): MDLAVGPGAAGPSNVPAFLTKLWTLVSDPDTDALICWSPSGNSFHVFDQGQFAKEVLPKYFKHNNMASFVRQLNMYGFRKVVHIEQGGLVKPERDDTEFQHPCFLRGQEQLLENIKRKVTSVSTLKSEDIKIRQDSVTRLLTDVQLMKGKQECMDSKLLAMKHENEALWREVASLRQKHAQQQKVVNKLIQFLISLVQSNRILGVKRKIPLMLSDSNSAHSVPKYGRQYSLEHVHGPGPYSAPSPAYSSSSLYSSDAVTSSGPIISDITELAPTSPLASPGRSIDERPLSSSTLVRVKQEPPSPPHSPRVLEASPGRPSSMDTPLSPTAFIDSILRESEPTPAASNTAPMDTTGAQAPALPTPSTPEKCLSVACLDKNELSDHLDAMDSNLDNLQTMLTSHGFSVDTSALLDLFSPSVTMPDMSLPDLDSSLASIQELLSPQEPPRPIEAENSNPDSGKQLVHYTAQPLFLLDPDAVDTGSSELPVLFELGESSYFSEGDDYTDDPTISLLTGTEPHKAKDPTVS
# [4] = Luminescence Cell-Based Dose Confirmation HTS to Identify Activators of 5'UTR Stem-Loop Driven Alpha-Synuclein mRNA Translation in H4 Neuroglioblastoma Cells. [Related pubchem assays: 1829 (Project Summary), 1814 (Primary HTS)]; assay type: functional
# H4 = assay: Luminescence Cell-Based Dose Response HTS to Identify Activators of 5'UTR Stem-Loop Driven Prion Protein mRNA Translation in H4 Neuroglioblastoma Cells. [Related pubchem assays: 1829 (Project Summary), 1814 (Primary HTS)]; assay type: functional; settings: Homo sapiens
# [5] = Luminescence Cell-Based Dose Response HTS to Identify Activators of Luciferase Translation or Activity in H4 […] Cells. [Related pubchem assays: 1829 (Project Summary), 1814 (Primary HTS)]; assay type: functional
# [6] = target: T1, Heat shock factor protein 1; assay: decrease of HSF1-responsive luciferase luminescence – cell-based, NIH3T3, dose retest, confirmation (AID 2382); assay type: functional;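 further: NIH3T3 fibroblasts with HSF1-driven luciferase reporter stressed by proteasome inhibitor MG132; luminescence from HSF1-driven luciferase expression after 8 hours of MG132 stress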
# Protein skinhead-1 = target: T2, Protein skinhead-1 (Caenorhabditis elegans, UniProt P34707); assay type: functional
# T2 sequence (P34707 whole entry): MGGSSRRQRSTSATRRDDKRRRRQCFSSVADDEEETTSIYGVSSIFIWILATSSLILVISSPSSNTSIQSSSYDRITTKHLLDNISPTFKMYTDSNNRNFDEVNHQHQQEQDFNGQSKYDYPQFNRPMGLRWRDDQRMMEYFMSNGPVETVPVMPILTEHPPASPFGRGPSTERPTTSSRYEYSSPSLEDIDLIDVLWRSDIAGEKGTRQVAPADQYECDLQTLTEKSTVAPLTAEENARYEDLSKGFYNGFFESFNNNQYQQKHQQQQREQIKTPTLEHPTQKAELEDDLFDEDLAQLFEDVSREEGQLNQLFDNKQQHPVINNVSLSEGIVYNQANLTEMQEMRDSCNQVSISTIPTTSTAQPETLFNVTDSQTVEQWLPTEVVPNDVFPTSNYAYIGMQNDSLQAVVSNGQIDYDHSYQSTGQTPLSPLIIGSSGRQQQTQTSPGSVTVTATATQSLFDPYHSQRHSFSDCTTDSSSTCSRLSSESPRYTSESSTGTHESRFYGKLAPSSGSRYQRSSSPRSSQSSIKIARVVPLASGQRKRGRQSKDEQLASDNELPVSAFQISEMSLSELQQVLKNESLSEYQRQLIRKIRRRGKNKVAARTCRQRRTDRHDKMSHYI
# INS1 = assay: INS-1E survival protection against cytokine death – cell-based, luminescence, retest, dose response (AID 449756); assay type: functional; settings: Rattus norvegicus;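 further: cell death triggered by IL-1 beta plus TNF-alpha plus IFN-gamma mixture; protective hits raise ATP signal compared with cytokine alone wells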
compound,measurement,setting,value
CCc1ccc(S(=O)(=O)NCCc2cn3ccsc3n2)s1,EC50,[1],> 112 µM (not active)
same,EC50,[2],> 112 µM (not active)
CN(C)CCNC(=O)c1cc(Cl)cc2cc3ccccc3nc12,GI50,P388/ADR,0.0622 µM (active)
same,GI50,SN12K1,0.378 µM (active)
same,GI50,P388,0.128 µM (active)
Cc1ccc(N2C(=O)CCC2(C#N)c2ccccc2)cc1 (stereo not given),EC50,[3],> 260 µM (inactive)
c1ccc2c(c1)SCCc1cn[nH]c1-2,GI50,P388/ADR,> 100 µM (inactive)
same,GI50,SN12K1,> 100 µM (inactive)
same,GI50,P388,> 100 µM (inactive)
O=C(Cn1ncc(N2CCOCC2)c(Br)c1=O)c1ccc(Cl)cc1,EC50,[4],> 120 µM (not active)
same,EC50,H4,17 µM (active)
same,EC50,[5],7.93 µM (active)
NCCCC(N)(C(=O)O)C(F)F (stereo not given) [EFLORNITHINE],GI50,P388/ADR,> 1840 µM (inactive)
same,GI50,SN12K1,1400 µM (inactive)
same,GI50,P388,275 µM (inactive)
CC1=Nc2cc(C(=O)NCC3CCCO3)ccc2Sc2ccc(Br)cc21 (stereo not given),EC50,[4],> 120 µM (not active)
same,EC50,H4,17.8 µM (active)
same,EC50,[5],> 120 µM (not active)
same,EC50,[6],> 195 µM (not active)
CCCN1CCC(=O)N([C@H](CSc2ccc(C)cc2)c2ccccc2)CC1,EC50,[4],8.36 µM (active)
same,EC50,H4,7.04 µM (active)
same,EC50,[5],5.58 µM (active)
COc1ccc(N2CCN(CC(=O)c3ccc(O)cc3O)CC2)cc1,EC50,[1],> 112 µM (not active)
same,EC50,[2],> 112 µM (not active)
CN1CCN(CC(=O)N(C)c2nc(-c3ccccc3)cs2)CC1,EC50,[4],1.12 µM (active)
same,EC50,[5],1.22 µM (active)
CSCC[C@H](NC(=O)C(CC(C)C)NC(=O)[C@H](Cc1c[nH]cn1)NC(=O)CNC(=O)[C@@H](NC(=O)[C@@H](C)NC(=O)[C@H](Cc1c[nH]c2ccccc12)NC(=O)[C@H](CCC(N)=O)NC(=O)[C@@H](N)CC(N)=O)C(C)(C)SC)C(N)=O (stereo not given in full) (H-NQW[dA][Pen](Me)GH[ξL]M-NH2),GI50,P388/ADR,> 100 µM (inactive)
same,GI50,SN12K1,> 100 µM (inactive)
same,GI50,P388,> 100 µM (inactive)
NC(=O)c1ccc(NC(=O)CC23CC4CC(CC(Br)(C4)C2)C3)cc1,EC50,[3],> 260 µM (inactive)
CCOC(=O)c1cc(-c2ccccc2)nn1Cc1cc(CC)no1,EC50,[4],12.4 µM (active)
same,EC50,H4,89.1 µM (active)
same,EC50,[5],7.3 µM (active)
Cc1ccccc1C(=O)O/N=C1\CCS(=O)(=O)c2sccc21,EC50,[3],0.943 µM (active)
O=[N+]([O-])c1ccc(N2CCCC2)c2ccncc12,EC50,[6],31.2 µM (active)
same,IC50,Protein skinhead-1,> 100 µM (inactive)
Oc1nc2cc3c(cc2cc1CN(CCc1ccccc1)Cc1nnnn1C1CCCC1)OCCO3,EC50,[1],> 112 µM (not active)
same,EC50,[2],> 112 µM (not active)
COc1cc2cc(CN(CCO)S(=O)(=O)c3ccccc3Cl)c(O)nc2cc1OC,EC50,[1],> 112 µM (not active)
same,EC50,[2],> 112 µM (not active)
O=C(Nc1ccc(N2CCOCC2)cc1)c1nc2ccccc2s1,EC50,[1],16.4 µM (active)
same,EC50,[2],5.93 µM (active)
O=C1CN2Cc3c(ccc(Cl)c3Cl)N=C2N1 [ANAGRELIDE HYDROCHLORIDE],EC50,[1],> 112 µM (not active)
same,EC50,[2],0.722 µM (active)
Cc1ccccc1C(=O)NCCOc1ccccc1Cl,EC50,[3],25.5 µM (active)
O=C(CSc1nc2nccnc2c(=O)n1Cc1cccs1)Nc1ccccc1F,EC50,[3],> 260 µM (inactive)
Cc1ccccc1N(C(=O)c1csnn1)C(C(=O)NC(C)(C)C)c1ccncc1 (stereo not given),EC50,[3],> 260 µM (inactive)
CC(C)(C)c1cccc(/C=N/O)c1O,EC50,[3],> 260 µM (inactive)
CCCCCCSc1nc(N)nc2nc[nH]c12,GI50,P388/ADR,12.7 µM (inactive)
same,GI50,SN12K1,38.7 µM (inactive)
same,GI50,P388,> 40.8 µM (inactive)
CCn1c(=O)cc(N2CCN(Cc3ccccc3)CC2)[nH]c1=O,EC50,[1],> 112 µM (not active)
same,EC50,[2],> 112 µM (not active)
C=C1C[C@@H](O)C[C@@]2(C)C[C@@H]3OC(=O)C(=C)[C@@H]3C[C@H]12,GI50,P388/ADR,2.2 µM (inactive)
same,GI50,SN12K1,12.3 µM (inactive)
same,GI50,P388,2.46 µM (inactive)
COc1cccc(NC(=O)CSc2nc3c4ccccc4nc-3c(O)n2C)c1,EC50,[3],> 260 µM (inactive)
CCOC(=O)CNC(=O)NC12CC3CC(CC(C3)C1)C2,GI50,P388/ADR,225 µM (inactive)
same,GI50,SN12K1,141 µM (inactive)
same,GI50,P388,63.8 µM (inactive)
Cc1cc(O)c2c(c1O)C(=O)C13C(=C(O)C4C(O)C1C1C(O)C3C(O)=C3C(=O)c5c(O)cc(C)c(O)c5C(=O)C341)C2=O (stereo not given),GI50,P388/ADR,0.0461 µM (active)
same,GI50,SN12K1,0.0506 µM (active)
same,GI50,P388,< 0.01 µM (active)
COc1ccccc1CNC(=O)c1ccc(NS(=O)(=O)c2cccs2)cc1,EC50,[3],> 260 µM (inactive)
C[S+](C)CC1OC(n2cnc3c(N)ncnc32)C(O)C1O (stereo not given),GI50,P388/ADR,> 22.5 µM (inactive)
same,GI50,SN12K1,> 225 µM (inactive)
same,GI50,P388,> 225 µM (inactive)
CSc1nc(NC(C)(C)C)nc(Oc2ccc(O)nn2)n1,EC50,[3],> 260 µM (inactive)
c1ccc(C(c2ccccc2)N2CCN(Cc3nnnn3C3CCCC3)CC2)cc1,EC50,[1],> 112 µM (not active)
same,EC50,[2],> 112 µM (not active)
CN1/C(=C\C(=O)C[n+]2cccc(Br)c2)C(C)(C)c2ccccc21,AC50,INS1,5.62 µM (active)
COC(=O)C1C(O)C(C)C(O)C(C)(O)/C=C\C=C(C)C(=O)Nc2c(C)c(OC(C)=O)c3c(c2O)C(=O)C(C)=C2OCOC(=C23)C(C)=CC(C)(O)C(O)C(C)C1OC(C)=O (stereo not given),GI50,P388/ADR,41.5 µM (inactive)
same,GI50,SN12K1,37 µM (inactive)
same,GI50,P388,30.3 µM (inactive)
CN(C)CCOc1cc2c(c3ccccc13)-c1ccccc1C2=O,GI50,P388/ADR,0.36 µM (active)
same,GI50,SN12K1,0.589 µM (active)
same,GI50,P388,0.0435 µM (active)
CC(=O)OCC1OC(Nc2ncc(-c3ccc(C)cc3)s2)C(OC(C)=O)C(OC(C)=O)C1OC(C)=O (stereo not given),GI50,P388/ADR,25.2 µM (inactive)
same,GI50,SN12K1,46.8 µM (inactive)
same,GI50,P388,28.4 µM (inactive)
COc1ccc(NC(=O)c2cc(S(=O)(=O)N3CCc4ccccc43)cn2C)cc1OC,EC50,[1],> 112 µM (not active)
same,EC50,[2],> 112 µM (not active)
CN1N=C(C(=O)N2CCc3c([nH]c4ccccc34)C2c2ccccc2Cl)CCC1=O (stereo not given),EC50,[4],13.2 µM (active)
same,EC50,H4,9.56 µM (active)
same,EC50,[5],10.8 µM (active)
CCOC(=O)CSc1nc2ccccc2c(=O)n1CCN1CCOCC1,IC50,Protein skinhead-1,> 100 µM (inactive)
CCOC(=O)C(C)/C(C)=N/NC(=O)c1cc2ccccc2cc1O (stereo not given),AC50,INS1,14.8 µM (active)
CCOc1cccc2c1OC(c1cc(OC)c(OC)c(OC)c1)N1N=C(c3ccc(C)o3)CC21 (stereo not given),EC50,[4],32 µM (active)
same,EC50,H4,8.82 µM (active)
same,EC50,[5],28.3 µM (active)
CCOC(=O)c1c(NC(=O)CSc2nc3ccccc3o2)sc(C)c1C,EC50,[3],> 260 µM (inactive)
COc1cc(C)c(S(=O)(=O)N2CCN=C2c2ccccc2)cc1C,EC50,[3],> 260 µM (inactive)
CCOC(=O)/C=C/c1c[nH]c(C(=O)OCC)c1,GI50,P388/ADR,> 100 µM (inactive)
same,GI50,SN12K1,> 100 µM (inactive)
same,GI50,P388,> 100 µM (inactive)
